From US6512003B2, “Synthetic spiroketal pyranes as potent anti-cancer agents and use” (Parker Hughes Institute, priority 1998, dated 2003)

Tests used:
[1] = test system: human BT-20 breast cancer cells; test: Apoptosis of breast cancer cells by transmission electron microscopy; format: cell-based; settings: BT-20 cells, FIG. 6
Protocol: (§1) The effects of spiroketal pyrans on the survival of human breast cancer cells were examined in vitro. Cells were incubated at 37° C. for the indicated time periods with the title compounds. At the end of the incubation, cells were washed twice with PBS and fixed in 2% paraformaldehyde and examined by microscopy.

[2] = test system: human breast cancer cells; test: Confocal laser scanning microscopy of microtubules (alpha-tubulin immunofluorescence) and mitotic index; format: cell-based; set-up: microtubule organization and cell morphology: dose or concentration left out as unconfirmed; settings: for microtubule organization and cell morphology: confocal microscopy, FIG. 7
Protocol: as §1
The effects of SPIKET-P1 on human breast cancer cells was also examined using confocal laser scanning microscopy^14. After fixing, the cells were permeabilized and non-specific binding sites were blocked with 2.5% BSA in PBS containing 0.1% Triton X-100 for 30 minutes. Tubulin expression was examined by immunofluorescence using a monoclonal antibody against α-tubulin (Sigma Chemical Co, St. Louis, Mo.) at a dilution of 1:1000 and an lanti-mouse IgG conjugated to FITC. Cells were washed in PBS and counterstained with toto-3 (Molecular Probes Inc., Eugene, Oreg.) for 10 minutes at a dilution of 1:1000. Cells were washed again with PBS and the coverslips were mounted with Vectashield (Vector Labs, Burlingame, Calif.) and viewed with a confocal microscope (Bio-Rad MRC 1024) mounted in a Nikon Labhophot upright microscope.
Digital images were saved on a Jaz disk and processed with Adobe Photoshop software (Adobe Systems, Mountain View, Calif.).
Vehicle-treated control cells are adherent with a well organized microtubule cytoskeleton, seen in the control (FIG. 7A) in green. […] Additionally, membrane blebbing and nuclear fragmentation was observed. Large vacuoles were present within treated cells. SPIKET-P-1 also affected the mitotic index, 2.25% of control cells were in mitosis whereas 0.0% of treated cells were in mitosis (23/1024 vs 0/1000, respectively).

tubulin = settings: cited from earlier work

Molecule | induction of apoptosis [1] | microtubule organization and cell morphology [2] | microtubule organization and cell morphology ([2]; listed as SPA-1) | mitotic index (cells in mitosis) ([2]; treated cells 0/1000, control cells 2.25% (23/1024)) | inhibition of binding of vinc alkaloids / colchicin to tubulin (tubulin)
OC1CC(CCOCc2ccccc2)OC2(C1)CC(O)CC(CCOCc1ccccc1)O2 (stereo not shown) [NP-25, 1,13-dibenzyloxy-5,9-dihydroxy-spiroketal] | induce apoptosis in human breast cancer cells | – | – | – | –
OC[C@H]1CCCC2(CCC[C@H](CO)O2)O1 [SPIKET-P1, [(2R,8R)-8-(hydroxymethyl)-1,7-dioxaspiro[5,5]undec-2-yl]methan-1-ol] | induce apoptosis in human breast cancer cells | destruction of the microtubule organization, membrane blebbing, and nuclear fragmentation consistent with apoptosis | fewer, less organized microtubules | 0.0% | –
c1ccc(COC[C@H]2CCCC3(CCC[C@H](COCc4ccccc4)O3)O2)cc1 [SPIKET-P1-P, Benzyl-protected SPIKET-P1] | induce apoptosis in human breast cancer cells | – | – | – | –
Spongistatin | – | – | – | – | inhibit the binding of vinc alkaloids (but not colchicin) to tubulin
